In PMC7729195, “Pharmacodynamic Functions of Synthetic Derivatives for Treatment of Methicillin-Resistant Staphylococcus aureus (MRSA) and Mycobacterium tuberculosis” (Frontiers in Microbiology, 2020):
Values after ≈ are worked out from the molar mass of the structure shown.

What was measured:
MRSA [1] = test: Minimum bactericidal concentration (MBC) for MRSA; format: cell-based, Staphylococcus aureus; design: unit not given here; details: sub-culture on agar, 18 h
MRSA [2] = test: Time-kill study against MRSA; format: cell-based, Staphylococcus aureus
MRSA [3] = test: Bacterial inhibition assay (resazurin), MIC against MRSA; format: cell-based, Staphylococcus aureus; design: MIC for MRSA: unit not given here
E. coli EC958 = test: Bacterial inhibition assay (resazurin), MIC against E. coli; format: cell-based, Escherichia coli; details: synthetic compounds, 18 h incubation
M. tuberculosis H37Rv [4] = test: Checkerboard assay with rifampicin against M. tuberculosis; format: cell-based, Mycobacterium tuberculosis
MRSA [5] = test: Checkerboard assay with vancomycin against MRSA; format: cell-based, Staphylococcus aureus; details: MRSA
TB. H37Rv = test: Minimum bactericidal concentration (MBC) for TB; format: cell-based, Mycobacterium tuberculosis; design: unit not given here; details: sub-culture on agar, 7 days
P. aeruginosa PAO1 = test: Bacterial inhibition assay (resazurin), MIC against P. aeruginosa; format: cell-based, Pseudomonas aeruginosa; details: Pseudomonas aeruginosa, PAO1; synthetic compounds, 18 h incubation
[6] = system: A549, THP-1, HepG2 and HEK 293 cell lines; format: cell-based, human
Method: (§1) Human alveolar epithelial cells (A549), ([Giard et al., 1973]), Madin-Darby canine kidney epithelial cells (MDCK), ([Gaush et al., 1966]), human leukemia cells (THP-1) ([Tsuchiya et al., 1980]), human hepatocellular carcinoma cells (Hep-G2), ([Aden et al., 1979]), and human embryonic kidney cells 293 (HEK293) ([Graham et al., 1977]) were grown and differentiated in complete RPMI (Roswell Park Memorial Institute Medium) and DMEM (Dulbecco’s Modified Eagle’s medium) tissue culture media (RPMIc and DMEMc). To determine toxicity of the AIMS extract library, 2 × 10^5 of each cell type were added to a 96-well plate and left for 48 h at 37°C to adhere. Extract samples at a final concentration of 0.5 mg mL^–1 were added to the wells, then incubated for 7 days in a humidified 5% CO2 incubator at 37°C. Then resazurin (10 μL of 0.05% w/v) was added, and after 4 h, fluorescence measured as described previously. Cell viability was calculated as percentage fluorescence relative to untreated cells.

resistant strains = test: MIC against resistant strains; format: cell-based; details: read-out: MIC against resistant strains
M. tuberculosis H37Rv [7] = test: Bacterial inhibition assay (resazurin), MIC against M. tuberculosis; format: cell-based, Mycobacterium tuberculosis; design: MIC for TB. H37Rv: unit not given here
HepG2 = format: cell-based; details: human, 7 days
Method: as §1

THP1 = format: cell-based; details: human, 7 days
Method: as §1

A549 = format: cell-based; details: human, 7 days
Method: as §1

HEK 293 = format: cell-based; details: human, 7 days
Method: as §1

M. tuberculosis = test: Time-kill study against M. tuberculosis; format: cell-based, Mycobacterium tuberculosis; details: rifampicin plus compound, day 7 of treatment
Method: Time-kill experiments were performed by culturing MRSA and M. tuberculosis in liquid medium in the presence of six synthesized sample concentrations in doubling dilutions ranging from 8 to 0.001 × MIC and 2 × MIC for both bacteria, respectively. Growth curves were initially generated to confirm that bacteria would reach a stable early- to mid-log phase after 2 and 48 h of pre-incubation in antimicrobial-free both medium, respectively. Samples were taken in different incubation times after drug exposure at 0, 2, 4, 6, 8, and 24 h for MRSA and 24, 48 h, and 4 and 6 days for M. tuberculosis and then plated onto agar plates for CFU determination. The experiments were carried out in duplicate and repeated three times.

[8] = M. tuberculosis, compound with rifampicin

CCCCCCCCN(CCCCCCCC)CCc1cn(-c2ccc3c4c(cccc24)C(=O)N(CC)C3=O)nn1 [Compound 18, 6-(4-(2-(Dioctylamino) Ethyl)-1H-1,2,3-Triazol-1-yl)-2-Ethyl-1H-Benzo[de]isoquinoline-1,3(2H)-Dione]
MBC for MRSA (MRSA [1]): 12.5
Effect of sub-inhibitory combination with vancomycin on MRSA growth (MRSA [2]; sub-inhibitory combinations with vancomycin): substantially inhibited growth of MRSA
Concentration at which killing was observed (MRSA [2]; time-kill, MRSA): 12.5 μg mL^–1
MIC (MRSA [3]; Staphylococcus aureus, MRSA, synthetic compounds, 18 h incubation): 12.5 ± 2 µM (≈ 7 µg/mL)
MIC for MRSA (MRSA [3]; Table 6 summary): 12.5
MIC (E. coli EC958; Escherichia coli, EC958): 1.5 µM (≈ 0.84 µg/mL)
MIC E. coli (E. coli EC958): 1.5 ± 4.0 µM (≈ 0.84 µg/mL)
Drug–drug interactions (M. tuberculosis H37Rv [4]; [8]): Indifference (0.25–4 indifferent or additive activity)
FIC (M. tuberculosis H37Rv [4]; [8]): 1
MIC50 (M. tuberculosis H37Rv [4]; Mycobacterium tuberculosis, H37RV, read-out: Compound alone MIC50 for M. tuberculosis): 6.25 µM
Effect against M. tuberculosis in combination with rifampicin (M. tuberculosis H37Rv [4]; rifampicin plus compound): synergistic or bactericidal effects
Drug–drug interactions (MRSA [5]; compound with vancomycin): Indifference (0.25–4 indifferent or additive activity)
FIC (MRSA [5]; compound with vancomycin): 1.2
MIC50 (MRSA [5]; Staphylococcus aureus, compound alone): 12.5 µM
MBC for TB. H37Rv (TB. H37Rv): 50
MIC (P. aeruginosa PAO1): 12.5 ± 0.8 µM (≈ 7 µg/mL)
Toxicity against THP1 and/or HEK 293 cells [6]: some toxicity
MIC (resistant strains): 2.2 µM (≈ 1.23 µg/mL)
MIC (M. tuberculosis H37Rv [7]; Mycobacterium tuberculosis, H37RV, 168 h, synthetic compounds, 7 days incubation): 12.5 ± 1 µM (≈ 7 µg/mL)
MIC for TB. H37Rv (M. tuberculosis H37Rv [7]; Table 6 summary): 6.25
Minimum toxicity concentration of drug (MTC) HepG2 (HepG2): >100 ± 5.0 µM
Minimum toxicity concentration of drug (MTC) THP1 (THP1): >100 ± 9.0 µM
Minimum toxicity concentration of drug (MTC) A549 (A549): >100 ± 6.0 µM
Minimum toxicity concentration of drug (MTC) HEK 293 (HEK 293): 3.1 ± 8.2 µM
Killing effect with rifampicin (M. tuberculosis): comparable killing effects
